A short description of one data set: Cell death (LDH assay). The data set is classed as cell-based. As for the experimental part: Presence of LDH in cell-free supernatants was measured using the Cytotoxicity Detection kit (Roche) following the manufacturer's instructions.
For the next data set, the system named is HIF-1α. Briefly: HIF-1α staining in human monocytes by flow cytometry. The format is cell-based. Conditions: ATP 1 mM 30 min; for HIF-1α expression by the agent itself: washed, cultured 2 h (FIG. 7e); for HIF-1α expression induced by ATP treatment: AZ11645373 10 μM or PDTC 10 μM (FIG. 7e). A general note: A flow cytometer gives signals particle by particle.

Data set [1] has as its system NLRP3 inflammasome. Briefly: IL-1β release from BMDMs pre-treated, washed, LPS-primed and stimulated with nigericin. The format is cell-based, mouse. The conditions noted are these: for IL-1β release after mitochondrial depolarizing agent: wild type or P2rx7−/− BMDMs, antimycin A 5 μM or FCCP 1 μM 30 min, then LPS 1 μg/ml 4 h, nigericin 10 μM 30 min (FIG. 6d). On the procedure: FIG. 6. P2X7 receptor stimulation induces an impairment of the NLRP3 inflammasome in monocytes. (a-b) Percentage of monocytes with ASC-specks (a) and release of […] from PBMCs (b) isolated from healthy donor blood samples treated with ATP (3 mM, 30 min; ATP-pre), then washed and primed with or without LPS (1 μg/ml, 2 h) and then treated for 20 min with ATP (3 mM; ATP-post) or nigericin (10 μM) as indicated. (c) IL-1β release from wild type or P2rx7^−/− BMDMs treated as in a, but with 4 h LPS priming and 30 min of ATP or nigericin. (d) IL-1β release from wild type or P2rx7^−/− BMDMs treated for 30 min with antimycin A (5 μM) or FCCP (1 μM) and then washed and primed with LPS (1 μg/ml, 4 h) and then stimulated with nigericin (10 μM, 30 min) as indicated. (e) Expression of Nrlp3 and Illb genes analyzed by quantitative PCR from wild type or P2rx7^−/− BMDMs treated with ATP (3 mM, 30 min; ATP-pre), then washed and primed with or without LPS (100 ng/ml, 4 h). (f) Kaplan-Meier representation of wild type (top) or P2rx7^−/− (bottom) mice survival after sham operation (dotted line), or CLP operation (continuous line); some mice groups were i.p. injected with ATP (0.5 mg/g) 30 min before operation (dashed lines). Wild type CLP n=10, CLP+ATP n=8, sham n=4, sham+ATP n=4; P2rx7^−/− CLP n=4, CLP+ATP n=6, sham n=3. (g) IL-1β from peritoneal lavage (left) or bacterial load in blood (right) from wild type sham, CLP or CLP+ATP mice after 24 h. Each dot represents a single independent experiment (c,d), a sample from an individual healthy donor (a,b,e) or a single mouse (g); average±standard error is represented in panels a-e,g; *p<0.05; **p<0.01; ns, no significant difference (p>0.05); Mann-Whitney test was used for a,b,d,e; Kruskal-Wallis test was used for c; Long-rank test for f.
(§1) FIG. 7. Mitochondrial dysfunction mediates P2X7 receptor induced NLRP3 inflammasome impairment. (a) Mitochondrial membrane depolarization in BMDMs treated with ATP (3 mM, 30 min), then washed out and incubated for the indicated times in the absence or presence of LPS (1 μg/ml) as indicated. […] (e) Representative histogram plot of HIF-1α staining (left) or quantification of HIF-1α mean intensity fluorescence increase (ΔMFI, right) in monocytes isolated from healthy donor blood samples and treated or not with ATP (1 mM, 30 min) in the presence or absence of AZ11645373 (10 μM) or PDTC (10 μM), and then washed and cultured for 2 h; non-stained monocytes (light grey, left). […] (g) Expression of HIF1A gene analyzed by quantitative PCR from control surgery group and septic patients PBMCs; septic patients are separated into NLRP3 non-immunocompromised (grey bar) and immunocompromised (black bar). […]

Another data set relates to Nlrp3 and Illb. Briefly: Quantitative PCR of Nlrp3 and Il1b gene induction by LPS. The data set is classed as cell-based, mouse. As for the experimental part:
FIG. 6. P2X7 receptor stimulation induces an impairment of the NLRP3 inflammasome in monocytes. (a-b) Percentage of monocytes with ASC-specks (a) and release of […] from PBMCs (b) isolated from healthy donor blood samples treated with ATP (3 mM, 30 min; ATP-pre), then washed and primed with or without LPS (1 μg/ml, 2 h) and then treated for 20 min with ATP (3 mM; ATP-post) or nigericin (10 μM) as indicated. (c) IL-1β release from wild type or P2rx7^−/− BMDMs treated as in a, but with 4 h LPS priming and 30 min of ATP or nigericin. (d) IL-1β release from wild type or P2rx7^−/− BMDMs treated for 30 min with antimycin A (5 μM) or FCCP (1 μM) and then washed and primed with LPS (1 μg/ml, 4 h) and then stimulated with nigericin (10 μM, 30 min) as indicated. (e) Expression of Nrlp3 and Illb genes analyzed by quantitative PCR from wild type or P2rx7^−/− BMDMs treated with ATP (3 mM, 30 min; ATP-pre), then washed and primed with or without LPS (100 ng/ml, 4 h). […]
Detailed methods used for qRT-PCR have been described in the prior art. Relative gene expression levels were calculated using the 2^−ΔCt method normalizing to Hprt1 expression as endogenous control.

The subject of the next data set is BMDMs. Briefly: ATP-induced mitochondrial membrane depolarization in BMDMs with or without antioxidant. The format is cell-based, mouse. Conditions: ATP 3 mM 30 min, PDTC 40 μM (FIG. 7c). As for the experimental part:
as §1, with “indicated. (b) IL-1β release from wild-type BMDMs treated as in a, but after LPS priming cells were stimulated with nigericin (10 μM, 30 min). (c) Mitochondrial membrane depolarization in BMDMs treated with ATP (3 mM, 30 min) in the presence or absence pyrrolidine dithiocarbamate (PDTC, 40 μM).” for “indicated.”

Data set [2] has as its system NLRP3 inflammasome. The data set can be described thus: IL-1β release from PBMCs of healthy donors pre-treated with ATP, LPS-primed and stimulated with nigericin. The data set is classed as cell-based. Conditions: human PBMCs, ATP-pre 1 mM 30 min with PDTC 10 μM, LPS 1 μg/ml 4 h, nigericin 10 μM 30 min (FIG. 7d). On the procedure: as §1, with “indicated. (b) IL-1β release from wild-type BMDMs treated as in a, but after LPS priming cells were stimulated with nigericin (10 μM, 30 min). (c) Mitochondrial membrane depolarization in BMDMs treated with ATP (3 mM, 30 min) in the presence or absence pyrrolidine dithiocarbamate (PDTC, 40 μM).” for “indicated.”

Procedure for HIF-1α: Human peripheral blood mononuclear cells (PBMCs) were isolated from blood within one hour after extraction using Ficoll histopaque 1077 (Sigma-Aldrich). […] Cells were treated with ATP (Sigma-Aldrich), antimycin A (Sigma-Aldrich) or FCCP (Sigma-Aldrich) in the presence or absence of PDTC (Sigma-Aldrich) or echinomycin (Sigma-Aldrich) in E-total buffer (147 mM NaCl, 10 mM HEPES, 13 mM glucose, 2 mM CaCl2), 1 mM MgCl2, and 2 mM KCl) and then washed and stimulated with E. coli LPS O55:B5 in their respective complete media. […] After LPS treatment, cells were incubated with P2X7 modulating nanobodies, the specific P2X7 receptor antagonist A438079 or AZ11645373 (Tocris), and then subsequently stimulated with ATP or nigericin (Sigma-Aldrich) in E-total buffer. Times and concentrations for the reagents used are specified in the figure legends.
HIF-1α expression was detected in CD14^+ monocytes using Alexa Fluor-647 mouse anti-human HIF-1α (BD Biosciences, Clone 54) at 1:1000 dilution.

Consider `N#CC(C#N)=NNc1ccc(OC(F)(F)F)cc1` [FCCP], for which, in the data set “Cell death (LDH assay)”, the cell death result is recorded as “did not induce cell death”. Moreover, the “HIF-1α expression by the agent itself” value with HIF-1α was “did not increase”. Further, the “IL-1β release after mitochondrial depolarizing agent” value in the data set with NLRP3 inflammasome [1] is on record as “reduced”.
Take `CS[C@H]1SC[C@H]2C(=O)N(C)[C@@H](C(C)C)C(=O)OC[C@@H](NC(=O)c3cnc4ccccc4n3)C(=O)N[C@@H](C)C(=O)N(C)[C@@H]1C(=O)N(C)[C@@H](C(C)C)C(=O)OC[C@@H](NC(=O)c1cnc3ccccc3n1)C(=O)N[C@@H](C)C(=O)N2C` [echinomycin]: the “production of IL-1β after ATP stimulation before LPS-priming and NLRP3 stimulation” value in the data set with NLRP3 inflammasome [1] (BMDMs, ATP-pre 3 mM 30 min with echinomycin 5 nM, LPS 1 μg/ml 4 h, nigericin 10 μM 30 min (FIG. 7f)) is “restored”.
Regarding antimycin A, the cell death result in “Cell death (LDH assay)” is reported as “did not induce cell death”. The “HIF-1α expression by the agent itself” value in the data set on HIF-1α was “did not increase”. In addition, in the data set with Nlrp3 and Illb, the “Nlrp3 and Illb gene induction by LPS” value is “reduced”. Further, in the data set on NLRP3 inflammasome [1], the “IL-1β release after mitochondrial depolarizing agent” value is “reduced”.
As to `S=C(S)N1CCCC1` [PDTC, pyrrolidine dithiocarbamate], the “ATP-induced mitochondrial membrane depolarization” value in the data set on BMDMs is “able to protect”. Further, the “HIF-1α expression induced by ATP treatment” value with HIF-1α is recorded as “able to prevent it”. For the same molecule, in the data set on NLRP3 inflammasome [2], the “production of IL-1β after ATP stimulation before LPS-priming and NLRP3 activation” value is recorded as “restored”.
Turning to `O=C1CSC(=O)N1C(CCc1ccncc1)COc1ccc(-c2cccc([N+](=O)[O-])c2)cc1` (stereo not drawn) [AZ116], the “HIF-1α expression induced by ATP treatment” value in the data set with HIF-1α is listed as “able to prevent it”.

The values are drawn from patent US20220334127A1, “IN VITRO METHOD FOR OBTAINING CLINICAL DATA IN PATIENTS SUFFERING FROM AN INFLAMMATORY DISEASE” (FUNDACIÓN PARA LA FORMACIÓN E INVESTIGACIÓN SANITARIAS DE …, priority 2019, published 2022).
